Laboratory results from paper PMC11205114, “A Multiomics Perspective on Plant Cell Wall-Degrading Enzyme Production: Insights from the Unexploited Fungus Trichoderma erinaceum” (Journal of Fungi, 2024).

Assays:
TrCel3B [1] = target: T1, TrCel3B (Trichoderma reesei, UniProt G0RJ07); assay: pNP release at […] nm; format: biochemical; details: pH 5.5, 50 °C (methods; figure legend 60 °C), 30 min
T1 construct: gene cel3b; gene 2622 bp, 96 kDa
T1 sequence (G0RJ07 19-874): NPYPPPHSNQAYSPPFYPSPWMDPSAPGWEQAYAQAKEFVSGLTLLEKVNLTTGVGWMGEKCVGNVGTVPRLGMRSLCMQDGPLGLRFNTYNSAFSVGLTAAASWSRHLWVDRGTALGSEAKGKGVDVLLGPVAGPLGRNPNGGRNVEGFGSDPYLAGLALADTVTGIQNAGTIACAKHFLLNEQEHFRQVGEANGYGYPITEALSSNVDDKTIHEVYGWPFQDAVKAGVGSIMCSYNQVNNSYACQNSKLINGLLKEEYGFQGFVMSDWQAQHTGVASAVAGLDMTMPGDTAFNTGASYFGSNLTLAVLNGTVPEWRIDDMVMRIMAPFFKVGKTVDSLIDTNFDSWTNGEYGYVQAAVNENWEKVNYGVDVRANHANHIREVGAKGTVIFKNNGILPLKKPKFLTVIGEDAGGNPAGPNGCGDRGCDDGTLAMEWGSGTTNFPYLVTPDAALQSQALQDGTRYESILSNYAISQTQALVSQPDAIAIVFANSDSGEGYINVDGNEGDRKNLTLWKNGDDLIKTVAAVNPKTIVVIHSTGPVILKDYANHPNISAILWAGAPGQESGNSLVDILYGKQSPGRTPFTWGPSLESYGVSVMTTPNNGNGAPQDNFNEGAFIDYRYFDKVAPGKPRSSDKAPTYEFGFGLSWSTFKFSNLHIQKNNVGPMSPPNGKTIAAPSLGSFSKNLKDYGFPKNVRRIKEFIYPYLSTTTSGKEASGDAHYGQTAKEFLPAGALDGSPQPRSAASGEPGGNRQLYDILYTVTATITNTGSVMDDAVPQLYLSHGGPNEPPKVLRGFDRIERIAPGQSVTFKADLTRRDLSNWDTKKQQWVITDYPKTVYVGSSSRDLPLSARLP

TrCel3B [2] = target: T1, TrCel3B; assay: pNPG hydrolysis, pNP release at […] nm; format: biochemical; details: pNPG substrate (5 mM stock), pH 4.5, 60 °C

SMILES	pNP release at 405 nm (TrCel3B [1])	% inhibition (TrCel3B [2])
O=[N+]([O-])c1ccc(O[C@@H]2O[C@H](CO)[C@@H](O)[C@H](O)[C@H]2O)cc1 [4-nitrophenyl β-D-glucopyranoside]	TeBgl3C and TrCel3B displayed the highest specific activities on pNPG	
OC[C@H]1OC(O)[C@H](O)[C@@H](O)[C@@H]1O (some centres unmarked) [glucose]		TeBgl3C showed a slightly higher tolerance to glucose than TrCel3B
